Test results reported in US5484924A, “Imidazonaphthyridine derivatives” (Kyowa Hakko Kogyo Co., Ltd., priority 1991, dated 1996).

Test system: tracheae from guinea pigs
Experiment: passive Shultz-Dale reaction (broncho-dilative activity), relaxation of antigen-contracted tracheal strips
Set-up: species or system Male Hartley guinea pigs
Conditions: Cavia porcellus; concentration of 50% relaxation; passively sensitized guinea pig tracheal zig-zag strips, 37° C., antigen (egg white albumin) 1 μg/ml
Method: Effect on passive Shultz-Dale reaction (broncho-dilative activity)
Male Hartley guinea pigs weighing 350 to 500 g were passively sensitized by intraperitoneal injection of rabbit anti-OA serum prepared in advance by the method of Koda et al. [Folia Pharmacol., Japon 66, 237, (1970)]. After 24 hours, tracheae were removed from guinea pigs and used for experiment. The zig-zag strips of the tracheae were prepared by the method of Emmerson and Mackay [J. Pharm. Pharmacol., 31, 798, (1979)]. The strips were suspended in Krebs-Henseleit solution at 37° C. under aeration of a mixed gas of 95% oxygen and 5% carbon dioxide, and equilibrated for one hour. Then, antigen (egg white albumin) was introduced in the solution (final concentration; 1 μg/ml), and the contraction was measured by isotonic transducer (TD-112s, made by Nihon Kohden K. K., Japan) and recorded on a recorder (Type 3066, made by Yokogawa-Hokushin Denki, K. K. Japan). After the contraction curves reached a plateau, the test compounds were successively added in order to get cumulative concentration-relaxation curves. The concentration of 50% relaxation rate (IC50) was calculated from the regression line, which was obtained from the cumulative concentration-relaxation curves.

For `S=c1c2[nH]cnc2c2cccnc2n1-c1ccccc1` [Compound 1, 5-Phenyl-3H-imidazo[4,5-c][1,8]naphthyridin-4(5H)-thione], the IC50 was 4.8 µM.
